One may read the IC50 as the midpoint of a concentration-inhibition curve. Low readings indicate higher potency, high ones lower potency.

For assay [1], the target named is T1, COX II (Homo sapiens, UniProt P35354).
T1 sequence (P35354 18-604): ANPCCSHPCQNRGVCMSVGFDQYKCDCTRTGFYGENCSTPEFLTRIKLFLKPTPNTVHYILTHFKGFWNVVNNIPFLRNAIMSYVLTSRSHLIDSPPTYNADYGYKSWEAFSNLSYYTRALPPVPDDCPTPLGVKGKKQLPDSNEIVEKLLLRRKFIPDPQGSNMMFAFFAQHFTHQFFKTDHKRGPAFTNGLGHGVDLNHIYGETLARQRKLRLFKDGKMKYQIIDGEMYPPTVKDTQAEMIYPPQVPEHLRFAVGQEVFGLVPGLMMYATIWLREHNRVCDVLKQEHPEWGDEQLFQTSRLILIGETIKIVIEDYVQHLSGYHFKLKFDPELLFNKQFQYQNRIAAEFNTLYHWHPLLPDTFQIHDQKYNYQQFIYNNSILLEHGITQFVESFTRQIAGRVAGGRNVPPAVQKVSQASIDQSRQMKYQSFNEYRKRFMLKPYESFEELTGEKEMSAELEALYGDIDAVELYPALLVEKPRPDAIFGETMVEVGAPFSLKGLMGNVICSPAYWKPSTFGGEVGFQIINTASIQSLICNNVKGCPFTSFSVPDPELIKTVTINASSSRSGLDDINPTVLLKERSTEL
The experiment in a line: Inhibition of COX II in a cell based assay (human foreskin fibroblasts, PGE2 ELISA). The following applies: human foreskin fibroblasts (HFF). Also noted: host or cells: primary human foreskin fibroblasts (HFF), induced with PMA and human interleukin-1. As to the method:
(§1) The COX I and COX II inhibitory activity of compounds of this invention in a cell based assay was determined as described below.
The inhibitory activity of test compounds against cell associated COX-2 was measured using primary cultures of human foreskin fibroblasts (HFF). HFF cultures were obtained from ATCC, grown in DMEM medium (Gibco) and used between 13-30 passages. Cells were plated in 96-well microtiter plates at a density of 6-8×10^4 cells/well in DMEM containing 10% fetal calf serum (Sigma) and cultured at 37° C. until they became confluent. The medium was removed and the cells were washed once with PBS. COX-2 activity was induced by incubating the cells with fresh DMEM containing 0.1 μM phorbol 12-myristate 13-acetate (PMA, Sigma) and 1ng/ml of human interleukin-1 (Sigma) at 37° C. After 16 h the medium was removed and the cells were washed twice with phosphate buffered saline (PBS, Gibco). 200 μl/well of fresh medium containing desired concentrations of the test compounds in DMSO, or the carrier vehicle (control wells) was added and the cells incubated at 37° C. for 30 minutes; after which 5 μM calcium ionophore A23187 (Sigma) was added and the incubation was continued for an additional 10 minutes. The reaction was terminated by transferring the plates to ice. The culture supernatants were transferred and appropriately diluted, and the amount of prostaglandin E2 (PGE2) present in each supernatant was quantitated using an ELISA kit (Cayman Chemicals).
(§2) The COX I and COX II inhibitory activities in the cell based assay (expressed as IC50) of some compounds of the invention were: […]
Background: An ELISA detects its analyte on a solid surface through an enzyme-linked reagent.

Assay [2] deals with T2, COX I (Homo sapiens, UniProt P23219). Put plainly: Inhibition of COX I in vitro, partially purified enzyme, radiometric assay. The class given is biochemical. The arrangement: made in house. The following applies: 20 micromolar arachidonic acid. Here is the method: (§3) The COX I and COX II inhibitory activity of compounds of this invention in vitro was determined using partially purified COX I and COX II enzymes, prepared as described in J. Barnett et al, Biochim. Biophys.
(§4) COX I and COX II samples were diluted with Tris-HCl buffer (50 mM Tris-HCl, pH 7.9) containing 2 mM EDTA and 10% glycerol and reconstituted by incubating first with 2 mM phenol for 5 minutes and then with 1 micromolar hematin for an additional 5 minutes. 125 μl of the reconstituted COX I or COX II enzyme were preincubated for 10 minutes at room temperature in a shaking water bath with the compounds of the invention dissolved in 2-15 μl of DMSO or the carrier vehicles (control samples). The enzyme reaction was initiated by adding 25 μl of 1-[14C]arachidonic acid (80,000-100,000 cpm/tube; 20 micromolar final concentration) and the reaction was allowed to continue for an additional 45 seconds. The reaction was terminated by adding 100 μl of 2N HCl and 750 μl water. An aliquot (950 μl) of the reaction mixture was loaded onto a 1 ml C18 Sep-Pak column (J. T. Baker, Phillipsburg, N.J.) which had been previously washed with 2-3 ml methanol and equilibrated with 5-6 ml distilled water. Oxygenated products were quantitatively eluted with 3 ml of acetonitrile/water/acetic acid (50:50:0.1, v/v) and the radioactivity in the eluate determined in a scintillation counter.

In assay [3] the target is T1, COX II. The experiment in a line: Inhibition of COX II in vitro, partially purified enzyme, radiometric assay. The class given is biochemical. The arrangement: made in house. The following applies: 20 micromolar arachidonic acid. As to the method:
as §3, §4

The nature of assay [4]: Carrageenan-induced paw edema in the rat (anti-inflammatory activity). The following applies: 3 h, 30 mg/Kg, oral, female rats, read-out: % inhibition of increase in hind paw weight. The class given is in vivo. Here is the method:
The anti-inflammatory activity of compounds of this invention was determined by measuring the inhibition of carrageenan-induced paw edema in the rat, using a modification of the method described in Winter C. k et al (1962) "Carrageenan-Induced Edema in Hind Paw of the Rat as an Assay for Anti-inflammatory Drugs". Proc. Soc. Exp. Biol. Med. 111: 544-547. This assay has been used as a primary in vivo screen for anti-inflammatory activity of most NSAIDs, and is considered predictive of human efficacy. Briefly, test materials were administered orally to female rats in a volume of 1 ml prepared as solutions or suspensions in an aqueous vehicle containing 0.9% NaCl, 0.5% sodium carboxymethyl-cellulose, 0.4% polysorbate 80, 0.9% benzyl alcohol and 97.3% distilled water. Control rats received vehicle alone. After 1 hr 0.05 ml of a 0.5% solution of Carrageenan (Type IV Lambda, Sigma Chemical Co.) in 0.9% saline was injected into the subplantar region of the right hind paw. Three hours later the rats were euthanized in a carbon dioxide atmosphere; hind paws were removed by severing at the tatso-crural joint; and the left and right paws were weighed. The increase in weight of the right paw over the left paw was obtained for each animal and the mean increases were calculated for each group. The anti-inflammatory activity of the test materials is expressed as the percent inhibition of the increase in hind paw weight of the test group relative to the vehicle-dosed control group.
The anti-inflammatory activities (expressed as % inhibition) of some of the compounds of the invention were: […]
For orientation: Carrageenan injected into the paw causes an acute inflammation.

The test system of assay [5] is prostaglandin E2 synthesis. The experiment in a line: Inhibition of eicosanoid (PGE2) synthesis in vivo, carrageenan air-pouch model in rats. Also noted: species or system rat. The following applies: oral, male rats. Here is the method:
In this assay, an air-pouch is created in the rat and the PGE2 levels in the air-pouch exudate are measured by enzyme immunoassay. Briefly, male rats were anesthetized using a 60:40 CO2 :O2 mixture and subsequently injected subcutaneously with 20 ml of sterilized air, under aseptic conditions, in the proximal area of the dorsum. This injection of sterile air causes the creation of a subcutaneous "air pouch". The next day, a further 10 ml of sterile air was injected into the previously formed pouch using the same technique. […] Control rats received vehicle alone. After 30 minutes, 5 ml of a 0.5% solution of carrageenan (Sigma, Lambda Type IV) was injected into the air pouch. The rats were euthanized 3 hr after the compound administration. […] The total exudate volume was recorded, and the samples were analyzed for PGE2 and 6-keto PGF1 by ELISA (Titerzyme®, PerSeptive Diagnostics) and TxB2 by radioimmuno assay (New England Nuclear Research, Catalog No. NEK-037), according to the manufacturer's directions.
The mean concentrations of PGE2 were calculated for each group. The anti-inflammatory activity of test materials is expressed as the percent inhibition of PGE2 formation in the test group relative to the control group.

Assay [6] addresses T2, COX I. Put plainly: Inhibition of COX I in a cell based assay (human promonocytic THP cells, TXB2 ELISA). The arrangement: endogenous in cells; host or cells: human promonocytic THP cells, PMA-treated. As to the method: as §1
The inhibitory activity of the test compounds against cell associated COX-1 was measured using human promonocytic THP cells. Cells were plated in 96-well microtiter plates at a density of 8×10^4 cells/well in RPMI-1640 medium (Gibco). COX-1 activity was initiated by incubating the cells with 0.1μM phorbol 12-myristate 13-acetate (PMA, Sigma) in dimethyl sulfoxide (DMSO, Aldrich) at 37° C. After 40-48 hours, the medium was removed, and the cells were washed twice with phosphate buffered saline (PBS, Gibco). 225 μl/well of fresh medium containing desired concentrations of the test compounds in DMSO, or the carrier vehicles (control wells), was added and the cells incubated at 37° C. for 30 minutes; after which 5 μM calcium ionophore A23187 (Sigma) was added and the incubation was continued for an additional 10 minutes. The reaction was terminated by transferring the plates to ice. The culture supernatants were transferred and appropriately diluted and the amount of thromboxane B2 (TXB2) present in each supernatant was quantitated using an ELISA kit (Cayman Chemicals).
as §2

Each structure is given as a SMILES string.

T2 sequence (P23219 24-599): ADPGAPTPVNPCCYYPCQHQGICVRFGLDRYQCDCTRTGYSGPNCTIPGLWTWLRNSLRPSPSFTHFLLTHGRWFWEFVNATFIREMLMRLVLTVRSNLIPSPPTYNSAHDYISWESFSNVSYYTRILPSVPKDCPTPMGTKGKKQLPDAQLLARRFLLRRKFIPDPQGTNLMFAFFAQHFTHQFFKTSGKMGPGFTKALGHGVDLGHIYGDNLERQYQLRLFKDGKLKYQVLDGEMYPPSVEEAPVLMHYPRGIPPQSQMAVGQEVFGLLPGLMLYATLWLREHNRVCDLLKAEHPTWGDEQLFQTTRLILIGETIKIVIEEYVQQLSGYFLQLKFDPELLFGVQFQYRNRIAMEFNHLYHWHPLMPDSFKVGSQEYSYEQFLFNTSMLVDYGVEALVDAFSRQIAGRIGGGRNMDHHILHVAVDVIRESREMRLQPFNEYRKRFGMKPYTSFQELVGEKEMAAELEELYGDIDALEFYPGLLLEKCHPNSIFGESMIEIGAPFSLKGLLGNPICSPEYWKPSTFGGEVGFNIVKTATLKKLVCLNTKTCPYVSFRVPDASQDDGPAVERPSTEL

As to `Cc1ccc(C(=O)c2c(Cl)cc(Cl)cc2Cl)cc1Cc1ccc(=O)[nH]n1` [Cpd 61, 6-[3-(2,4,6-trichlorobenzoyl)-6-methylbenzyl]-2H-pyridazin-3-one], the IC50 turned out to be 0.48 µM in assay [1], 310 µM in assay [2] and 0.18 µM in assay [3].

On to `COc1ccc(C(=O)c2c(Cl)cc(Cl)cc2Cl)cc1Cc1ccc(=O)n(C)n1` [Cpd 31, 6-[3-(2,4,6-trichlorobenzoyl)-6-methoxybenzyl]-2-methyl-2H-pyridazin-3-one], for which the 50% inhibitory concentration (IC50) in assay [1] turned out to be 4 µM; in assay [2] it was 1000 µM; in assay [3], 1.3 µM. Also, the inhibition in vivo at 30 mg/kg in assay [4] was found to be 38%.

As to `CSc1ccc(C(=O)c2cccc(Cc3ccc(=O)[nH]n3)c2C)cc1` [Cpd 10, 6-[3-(4-methylthiobenzoyl)-2-methylbenzyl]-2H-pyridazin-3-one], the “% inhibition of air pouch PGE2 formation” value in assay [5] (10 mg/Kg) was found to be 24%.

Take `COc1ccc(C(=O)c2c(C)cc(C)cc2C)cc1Cc1ccc(=O)[nH]n1` [Cpd 44, 6-[3-(2,4,6-trimethylbenzoyl)-6-methoxybenzyl]-2H-pyridazin-3-one]: the IC50 in assay [1] amounted to 1.2 µM; in assay [2], 100 µM; in assay [6], 16 µM; in assay [3], 1.3 µM. In addition, the inhibition in vivo at 30 mg/kg in assay [4] was 19%.

For `O=C(c1cccc(Cc2ccc(=O)[nH]n2)c1)c1c(Cl)cc(Cl)cc1Cl` [Cpd 78, 6-[3-(2,4,6-trichlorobenzoyl)benzyl]-2H-pyridazin-3-one], the IC50 in assay [1] is 0.3 µM; in assay [2], 740 µM; in assay [3], 2 µM. Further, the inhibition in vivo at 30 mg/kg in assay [4] is 22%.

For the compound `CSc1ccc(C(=O)c2cccc(Cc3ccc(=O)[nH]n3)c2Cl)cc1` [Cpd 5, 6-[3-(4-methylthio-benzoyl)-2-chlorobenzyl]-2H-pyridazin-3-one], in assay [5] (10 mg/Kg), the “% inhibition of air pouch PGE2 formation” value was 32%.

As for `COc1ccc(C(=O)c2c(Cl)cc(C)cc2Cl)cc1Cc1ccc(=O)[nH]n1` [Cpd 28, 6-[3-(2,6-dichloro-4-methylbenzoyl)-6-methoxybenzyl]-2H-pyridazin-3-one], the IC50 in assay [1] amounted to 3.4 µM; in assay [2], 100 µM; in assay [3] it was 2 µM. Moreover, in assay [4], the inhibition in vivo at 30 mg/kg was determined as 21%.

Consider `Cc1ccc(C(=O)c2c(Cl)cc(Cl)cc2Cl)cc1Cc1ccc(=O)n(C)n1` [Cpd 62, 6-[3-(2,4,6-trichlorobenzoyl)-6-methylbenzyl]-2-methyl-2H-pyridazin-3-one], for which the IC50 in assay [1] is 0.3 µM; in assay [2], 300 µM; in assay [3] it was 0.18 µM. Besides, the inhibition in vivo at 30 mg/kg in assay [4] worked out at 33%.

`O=C(c1ccc(Cl)c(Cc2ccc(=O)[nH]n2)c1)c1c(Cl)cc(Cl)cc1Cl` [Cpd 73, 6-[3-(2,4,6-trichlorobenzoyl)-6-chlorobenzyl]-2H-pyridazin-3-one]: the IC50 in assay [1] came to 0.2 µM; in assay [2] it was 423 µM; in assay [6], 21 µM; in assay [3], 0.16 µM. Besides, the inhibition in vivo at 30 mg/kg in assay [4] is 33%.

Consider `COc1ccc(C(=O)c2c(Br)cc(C)cc2Br)cc1Cc1ccc(=O)[nH]n1` [Cpd 39, 6-[3-(2,6-dibromo-4-methylbenzoyl)-6-methoxybenzyl]-2H-pyridazin-3-one], for which the 50% inhibitory concentration (IC50) in assay [1] was determined as 1 µM; in assay [2], 100 µM; in assay [6] it was 26 µM; in assay [3], 1 µM. Besides, the inhibition in vivo at 30 mg/kg in assay [4] amounted to 33%.

Take `O=C(c1ccc(F)c(Cc2ccc(=O)[nH]n2)c1)c1c(Cl)cc(Cl)cc1Cl` [Cpd 77, 6-[3-(2,4,6-trichlorobenzoyl)-6-fluorobenzyl]-2H-pyridazin-3-one]: the IC50 amounted to 0.03 µM in assay [1], 300 µM in assay [2], 17 µM in assay [6] and 0.14 µM in assay [3]. The “% inhibition of air pouch PGE2 formation” value in assay [5] (30 mg/Kg) was determined as 53%.

For the compound `COc1ccc(C(=O)c2c(Cl)cc(Cl)cc2Cl)cc1Cc1ccc(=O)[nH]n1` [Cpd 26, 6-[3-(2,4,6-trichlorobenzoyl)-6-methoxybenzyl]-2H-pyridazin-3-one], the IC50 in assay [1] was found to be 0.3 µM; in assay [2] it was 540 µM; in assay [6] it was 19 µM; in assay [3] it was 0.6 µM. Moreover, the inhibition in vivo at 30 mg/kg in assay [4] stood at 24%.

Values taken from patent publication US5886178A, “3-aroylbenzylpyridazinone derivatives” (Syntex (U.S.A.) Inc., priority 1997, dated 1999).
